The values that follow come from US20100144779A1, “Marine Alkalod Makaluvamines and Derivatives Thereof” (THE UAB RESEARCH FOUNDATION, priority 2007, published 2010).

Like-named read-outs stand apart in the source and are kept apart here.

What all share (assay type): cell-based, human
The subject of assay [1] is MCF-7. Kind of assay: XTT cytotoxicity assay. Particulars: XTT, read-out: IC50 (μM) MCF-7. How it is done:
In initial experiments, compounds 4a-g and 7c-g were evaluated for their cytotoxicity against human breast cancer cell lines MCF-7 and MDA-MB-468 and human colon cancer cell line HCT-116. The makaluvamine compounds provided in Table 2 were also evaluated for their cytotoxicity against human breast cancer cell lines MCF-7. Compound nos. 8 and 27-33 were not evaluated in this experiment. Cells were obtained from ATCC (Manassas, Va.). For each derivative the IC50 value was determined using data generated from 2-4 independent tetrazolium-based (XTT) cytotoxicity assays (R & D Systems Inc., Minneapolis, Minn.) according to the manufacturer's instructions. […] MCF-7, MDA-MD-468 and HCT-116 cells were grown at 37 degrees C. in a humidified atmosphere with complete growth media supplemented with fetal bovine serum. Growth media was changed 2-3 times per week as required.
Background: Formazan colour is commonly taken as a measure of viable cells.

Assay [2] concerns p21. The assay can be described thus: Protein expression, Western blot in MCF-7 cells. Particulars: 1 μM, 6 h (FIG. 4A). How it is done: (§1) In FIG. 4A, MCF-7 cells were exposed to 1 μM concentration of the indicated compounds for 6 hours. Western blots were probed with antibodies specific for the proteins indicated. Numbers below each lane show densitometry readings for each lane as compared to control. […] Western blots were probed with antibodies specific for the proteins indicated.
(§2) To determine the disclosed compounds effect on protein expression in human breast cancer cells, cultured MCF-7 cells were exposed to various concentrations of the test compounds for 6 h (FIG. 4A) or 24 h (FIG. 4B). Cell lysates were fractionated with identical amounts of protein by SDS-PAGE and transferred to Bio-Rad trans-Blot nitrocellulose membranes (Bio-Rad Laboratories, Hercules, Calif.). The nitrocellulose membrane was incubated in blocking buffer (Tris-buffered saline containing 0.1% Tween 20 and 5% nonfat milk) for 1 h at room temperature, then with the appropriate primary antibody overnight at 4° C. or 2 h at room temperature with gentle shaking. Finally, the membrane was washed three times with the washing buffer (Tris-buffered saline containing 0.1% Tween 20) for 15 min, incubated with goat anti mouse/rabbit IgG-horseradish peroxidase-conjugated antibody (Bio-Rad) for 1 h at room temperature, and washed again (in triplicate). The protein of interest was detected by enhanced chemiluminescence reagents from PerkinElmer LAS, Inc (Boston, Mass.).
A general note: In western blotting, separated proteins are transferred to a membrane and probed.

In assay [3] the test system is MDM2. Kind of assay: Protein expression, Western blot in MCF-7 cells. Particulars: 1 μM, 6 h (FIG. 4A). How it is done: as §1, §2
Assay [4] deals with p53. The assay can be described thus: Protein expression, Western blot in MCF-7 cells. Particulars: 1 μM, 6 h (FIG. 4A). How it is done:
as §1, §2

The test system of assay [5] is MCF7 cells. The assay can be described thus: MTT growth inhibition assay. The conditions noted are these: for IC50: Homo sapiens, read-out: Growth inhibitory activity (IC50) in MCF7 cells.
Description: The cell lines were obtained from the American Type Culture Collection (Rockville, Md.) and were grown as follows: MCF-7 (p53 wt) breast cancer cells were grown in DMEM media containing 1 mM non-essential amino acids, Earle's BSS, 1 mM Na pyruvate, and 10 mg/L bovine insulin.
All media contained 10% FBS and 1% penicillin/streptomycin unless otherwise specified. The effects of disclosed compounds on human cancer cell growth, expressed as the percentage of cell survival, were determined by the MTT [3-(4,5-Dimethyl-2-thiazolyl)-2,5-diphenyl-2H-tetrazolium bromide] assay. Cells were grown in 96-well plates and exposed to the test compounds (0, 0.01, 0.1, 1, 10, 100 μM) for 72 hr followed by addition of 10 μL MTT solution (5 mg/mL; Sigma; St. Louis, Mo.) to each well. The plates were incubated for 2-4 hr at 37° C. The supernatant was then removed and formazan crystals were dissolved with 100 μL of DMSO. The absorbance at 570 nm was recorded with an OPTImax microplate reader (Molecular Devices; Sunnyvale, Calif.). The cell survival percentages were calculated by dividing the mean OD of compound containing wells by that of DMSO-control wells. Three separate experiments were accomplished to determine the IC50.

In the case of `Cc1ccc(CNC2=CC3=NCCc4cn(S(=O)(=O)c5ccc(C)cc5)c(c43)C2=O)cc1` [Compound 9], the IC50 (as a rule, the concentration at which inhibition is half-maximal) in assay [1] (Homo sapiens, MCF7, Table 2) is 1 to 5 µM; in assay [1] (Table 2) it was 1.48 µM.

Take `O=C(O)C(F)(F)F.O=C1C(NCCc2ccc(Cl)cc2)=CC2=NCCc3c[nH]c1c32` [Compound 24]: the “expression of p21” value in assay [2] is “decreased the expression”. For the same molecule, in assay [3], the “expression of MDM2” value was “inhibited the expression”. For the same molecule, the “expression of p53” value in assay [4] was “increased the expression”. For the same molecule, in assay [5] (MCF7, Table 5, MTT, 72 hr), the IC50 is 0.584 µM. For the same molecule, in assay [5] (Table 5, MTT, 72 hr), the “Growth inhibitory activity (IC50) in MCF7 cells” value (shortened to “Growth inhibitory activity”) is recorded as “nM range”.

For the molecule `Cc1ccc(CCNC2=CC3=NCCc4cn(S(=O)(=O)c5ccc(C)cc5)c(c43)C2=O)cc1` [Compound 11], the IC50 in assay [1] (Homo sapiens, MCF7, Table 2) is 1 to 5 µM; in assay [1] (Table 2), 1.47 µM.

For the molecule `COc1ccc(CCNC2=CC3=NCCc4c[nH]c(c43)C2=O)cc1.O=C(O)C(F)(F)F` [Compound 16], the “expression of p21” value in assay [2] was “decreased the expression”. The “expression of MDM2” value in assay [3] is given as “inhibited the expression”. Also, the “expression of p53” value in assay [4] is “decreased the expression”. Further, the IC50 in assay [5] (MCF7, Table 5, MTT, 72 hr) is 0.2 µM. The “Growth inhibitory activity” value in assay [5] (Table 5, MTT, 72 hr) was “nM range”.

Take `COC1=CC(CNC2=CC3=NCCc4c[nH]c(c43)C2=O)=CC(OC)C1OC.O=C(O)C(F)(F)F` (stereo not shown) [Compound 4]: the IC50 in assay [1] (Homo sapiens, MCF7, Table 2) came to 30.5 µM; in assay [5] (MCF7, Table 5, MTT, 72 hr) it was 0.515 µM. Further, the “expression of p53” value in assay [4] was “increased the expression”.

As to `Cc1ccc(CNC2=CC3=NCCc4c[nH]c(c43)C2=O)cc1` [Compound 10], the IC50 is 1 to 5 µM in assay [1] (Homo sapiens, MCF7, Table 2) and 1.69 µM in assay [1] (Table 2).

For `Cc1ccc(S(=O)(=O)n2cc3c4c2C(=O)C(NCCc2ccc(Cl)cc2)=CC4=NCC3)cc1` [Compound 23], the IC50 was 1 to 5 µM in assay [1] (Homo sapiens, MCF7, Table 2) and 1.55 µM in assay [1] (Table 2).

Turning to `COC1=CC(CNC2=CC3=NCCc4cn(S(=O)(=O)c5ccc(C)cc5)c(c43)C2=O)=CC(OC)C1OC` (stereo not shown) [Compound 3], the IC50 in assay [1] (Homo sapiens, MCF7, Table 2) was < 1 µM; in assay [1] (Table 2), 0.96 µM.

As to `COc1ccc(CNC2=CC3=NCCc4c[nH]c(c43)C2=O)cc1OC` [Compound 18], the IC50 is 5 to 15 µM in assay [1] (Homo sapiens, MCF7, Table 2) and 5.98 µM in assay [1] (Table 2).

Take `O=C(O)C(F)(F)F.O=C1C(NCCc2ccc(F)cc2)=CC2=NCCc3c[nH]c1c32` [Compound 30]: the “expression of p21” value in assay [2] is given as “increased the expression”. The “expression of p53” value in assay [4] is listed as “increased the expression”. Further, the IC50 in assay [5] (MCF7, Table 5, MTT, 72 hr) came out at 0.787 µM. In addition, in assay [5] (Table 5, MTT, 72 hr), the “Growth inhibitory activity” value was “nM range”.

Regarding `COc1ccc(CNC2=CC3=NCCc4cn(S(=O)(=O)c5ccc(C)cc5)c(c43)C2=O)cc1` [Compound 13], the IC50 in assay [1] (Homo sapiens, MCF7, Table 2) was 1 to 5 µM; in assay [1] (Table 2) it was 1.02 µM.

As to `O=C1C(NCc2ccc(Cl)cc2)=CC2=NCCc3c[nH]c1c32` [Compound 22], the IC50 in assay [1] (Homo sapiens, MCF7, Table 2) was 1 to 5 µM; in assay [1] (Table 2), 1.33 µM.

As for `COc1ccc(CCNC2=CC3=NCCc4cn(S(=O)(=O)c5ccc(C)cc5)c(c43)C2=O)cc1.O=C(O)C(F)(F)F` [Compound 15], the IC50 was 1 to 5 µM in assay [1] (Homo sapiens, MCF7, Table 2); 1.33 µM in assay [1] (Table 2); 1.05 µM in assay [5] (MCF7, Table 5, MTT, 72 hr). Moreover, the “expression of p21” value in assay [2] is “decreased the expression”. Besides, in assay [3], the “expression of MDM2” value is “inhibited the expression”. Also, in assay [4], the “expression of p53” value was “decreased the expression”. The “Growth inhibitory activity” value in assay [5] (Table 5, MTT, 72 hr) is reported as “μM range”.

Consider `O=C(O)C(F)(F)F.O=C1C(NCCc2ccc(Cl)c(Cl)c2)=CC2=NCCc3c[nH]c1c32` [Compound 26], for which the “expression of p21” value in assay [2] was “increased the expression”. Moreover, in assay [4], the “expression of p53” value was “increased the expression”. Moreover, the IC50 in assay [5] (MCF7, 72 h) worked out at 0.495 µM. Also, the “Growth inhibitory activity” value in assay [5] (Table 5, MTT, 72 hr) is reported as “nM range”.

`Cc1ccc(S(=O)(=O)n2cc3c4c2C(=O)C(NCCc2ccc([N+](=O)[O-])cc2)=CC4=NCC3)cc1` [Compound 7]: the IC50 in assay [1] (Homo sapiens, MCF7, Table 2) is < 1 µM; in assay [1] (Table 2), > 1 µM.

In the case of `Cc1ccc(S(=O)(=O)n2cc3c4c2C(=O)C(NCCc2ccc5c(c2)OCO5)=CC4=NCC3)cc1.O=C(O)C(F)(F)F` [Compound 5], in assay [2], the “expression of p21” value was “increased the expression”. The “expression of p53” value in assay [4] was “increased the expression”. In assay [5] (MCF7, Table 5, MTT, 72 hr), the IC50 is 1.62 µM. Further, in assay [5] (Table 5, MTT, 72 hr), the “Growth inhibitory activity” value was “μM range”.

As for `COc1ccc(CCNC2=CC3=NCCc4cn(S(=O)(=O)c5ccc(C)cc5)c(c43)C2=O)cc1OC` [Compound 19], the half-maximal inhibitory concentration (IC50) in assay [1] (Homo sapiens, MCF7, Table 2) is < 1 µM; in assay [1] (Table 2), > 1 µM.

As for `O=C(O)C(F)(F)F.O=C1C(NCc2ccc3c(c2)OCO3)=CC2=NCCc3c[nH]c1c32` [Compound 2], the IC50 is 5 to 15 µM in assay [1] (Homo sapiens, MCF7, Table 2); 5.22 µM in assay [1] (Table 2); 0.809 µM in assay [5] (MCF7, Table 5, MTT, 72 hr). Moreover, in assay [2], the “expression of p21” value is given as “decreased the expression”. For the same molecule, in assay [4], the “expression of p53” value is on record as “increased the expression”. For the same molecule, the “Growth inhibitory activity” value in assay [5] (Table 5, MTT, 72 hr) is recorded as “nM range”.

Consider `Cc1ccc(S(=O)(=O)n2cc3c4c2C(=O)C(NCc2ccc5c(c2)OCO5)=CC4=NCC3)cc1.O=C(O)C(F)(F)F` [Compound 1], for which the IC50 is < 1 µM in assay [1] (Homo sapiens, MCF7, Table 2) and 0.78 µM in assay [1] (Table 2). Further, the “expression of p21” value in assay [2] is “increased the expression”.

As to `Cc1ccc(CCNC2=CC3=NCCc4c[nH]c(c43)C2=O)cc1.O=C(O)C(F)(F)F` [Compound 12], the “expression of p21” value in assay [2] is given as “decreased the expression”. In addition, the “expression of MDM2” value in assay [3] is listed as “inhibited the expression”. Besides, in assay [4], the “expression of p53” value was “increased the expression”. In assay [5] (MCF7, Table 5, MTT, 72 hr), the IC50 was 0.833 µM. Also, the “Growth inhibitory activity” value in assay [5] (Table 5, MTT, 72 hr) was “nM range”.

With `O=C(O)C(F)(F)F.O=C1C(NCCc2ccc([N+](=O)[O-])cc2)=CC2=NCCc3c[nH]c1c32` [Compound 8], in assay [2], the “expression of p21” value was “decreased the expression”. Moreover, in assay [3], the “expression of MDM2” value is given as “inhibited the expression”. For the same molecule, the “expression of p53” value in assay [4] is given as “decreased the expression”. Besides, in assay [5] (MCF7, Table 5, MTT, 72 hr), the IC50 was determined as 0.427 µM. The “Growth inhibitory activity” value in assay [5] (Table 5, MTT, 72 hr) was “nM range”.

Take `Cc1ccc(S(=O)(=O)n2cc3c4c2C(=O)C(NCc2ccc(Cl)cc2)=CC4=NCC3)cc1.O=C(O)C(F)(F)F` [Compound 21]: the IC50 was < 1 µM in assay [1] (Homo sapiens, MCF7, Table 2); 0.83 µM in assay [1] (Table 2); 0.774 µM in assay [5] (MCF7, Table 5, MTT, 72 hr). Besides, the “expression of p21” value in assay [2] is reported as “decreased the expression”. In addition, the “expression of MDM2” value in assay [3] is “inhibited the expression”. Moreover, the “expression of p53” value in assay [4] is on record as “decreased the expression”. In addition, the “Growth inhibitory activity” value in assay [5] (Table 5, MTT, 72 hr) is recorded as “nM range”.

Regarding `COc1ccc(CNC2=CC3=NCCc4cn(S(=O)(=O)c5ccc(C)cc5)c(c43)C2=O)cc1OC.O=C(O)C(F)(F)F` [Compound 17], the IC50 in assay [1] (Homo sapiens, MCF7, Table 2) is < 1 µM; in assay [1] (Table 2) it was 0.65 µM; in assay [5] (MCF7, Table 5, MTT, 72 hr), 1.01 µM. For the same molecule, the “expression of p21” value in assay [2] is given as “increased the expression”. In assay [4], the “expression of p53” value was “increased the expression”. Besides, the “Growth inhibitory activity” value in assay [5] (Table 5, MTT, 72 hr) is listed as “μM range”.

As for `Cc1ccc(S(=O)(=O)n2cc3c4c2C(=O)C(NCCc2ccc(F)cc2)=CC4=NCC3)cc1.O=C(O)C(F)(F)F` [Compound 29], the “expression of p21” value in assay [2] is “increased the expression”. Further, the “expression of p53” value in assay [4] is on record as “increased the expression”. Moreover, in assay [5] (MCF7, Table 5, MTT, 72 hr), the IC50 was found to be 1.92 µM. Also, in assay [5] (Table 5, MTT, 72 hr), the “Growth inhibitory activity” value was “μM range”.
